Like-named read-outs stand apart in the source and are kept apart here.
Assays:
[1] = target: Human α2δ-1 subunit of Cav2.2 calcium channel (Homo sapiens (Human), UniProt P54289); experiment: Binding Assay to Human α2δ-1 Subunit of Cav2.2 Calcium Channel; settings: human α2δ-1 enriched membranes, 15 nM [3H]-Gabapentin, read-out: Ki(nM) alpha2delta Hum
How it was run: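 Radioligand filtration binding at the α2δ-1 subunit, test compound at five concentrations; nonspecific binding defined with 10 μM pregabalin. Incubated 60 min at 27 °C, stopped by GF/C filtration (0.5% PEI presoaked) with ice-cold 50 mM Tris-HCl pH 7.4 washes; bound radioactivity counted by scintillation.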

[2] = target: Human norepinephrine transporter (NET) (Homo sapiens (Human), UniProt P23975); experiment: Binding Assay to Human Norepinephrine Transporter (NET); settings: Table 2, dual compounds; human NET enriched membranes, 5 nM [3H]-Nisoxetin; read-out: Ki(nM) NET Hum
How it was run: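 hNET-enriched membranes (5 μg) incubated with 5 nM [3H]-nisoxetine in Tris pH 7.4 containing 120 mM NaCl and 5 mM KCl, with compound at five concentrations, 60 min at 4 °C. Non-specific binding with 10 μM desipramine; filtration and scintillation counting.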

Human norepinephrine transporter (NET), sequence (P23975 whole entry): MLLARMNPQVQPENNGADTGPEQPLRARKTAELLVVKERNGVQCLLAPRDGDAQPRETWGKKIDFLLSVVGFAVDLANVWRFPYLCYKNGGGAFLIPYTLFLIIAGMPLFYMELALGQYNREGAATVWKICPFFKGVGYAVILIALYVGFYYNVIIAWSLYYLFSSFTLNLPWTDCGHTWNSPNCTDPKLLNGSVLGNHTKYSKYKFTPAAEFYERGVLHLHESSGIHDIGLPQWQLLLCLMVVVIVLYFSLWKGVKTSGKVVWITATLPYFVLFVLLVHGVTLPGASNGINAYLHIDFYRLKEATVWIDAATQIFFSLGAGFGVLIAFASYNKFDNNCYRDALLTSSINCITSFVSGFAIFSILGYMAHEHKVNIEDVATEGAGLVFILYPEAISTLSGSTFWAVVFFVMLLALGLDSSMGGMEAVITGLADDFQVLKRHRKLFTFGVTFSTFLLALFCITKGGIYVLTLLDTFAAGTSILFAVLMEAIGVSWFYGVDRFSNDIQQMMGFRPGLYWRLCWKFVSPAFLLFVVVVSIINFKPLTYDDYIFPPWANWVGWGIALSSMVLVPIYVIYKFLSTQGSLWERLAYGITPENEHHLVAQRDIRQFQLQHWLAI
Human α2δ-1 subunit of Cav2.2 calcium channel, sequence (P54289 25-1103): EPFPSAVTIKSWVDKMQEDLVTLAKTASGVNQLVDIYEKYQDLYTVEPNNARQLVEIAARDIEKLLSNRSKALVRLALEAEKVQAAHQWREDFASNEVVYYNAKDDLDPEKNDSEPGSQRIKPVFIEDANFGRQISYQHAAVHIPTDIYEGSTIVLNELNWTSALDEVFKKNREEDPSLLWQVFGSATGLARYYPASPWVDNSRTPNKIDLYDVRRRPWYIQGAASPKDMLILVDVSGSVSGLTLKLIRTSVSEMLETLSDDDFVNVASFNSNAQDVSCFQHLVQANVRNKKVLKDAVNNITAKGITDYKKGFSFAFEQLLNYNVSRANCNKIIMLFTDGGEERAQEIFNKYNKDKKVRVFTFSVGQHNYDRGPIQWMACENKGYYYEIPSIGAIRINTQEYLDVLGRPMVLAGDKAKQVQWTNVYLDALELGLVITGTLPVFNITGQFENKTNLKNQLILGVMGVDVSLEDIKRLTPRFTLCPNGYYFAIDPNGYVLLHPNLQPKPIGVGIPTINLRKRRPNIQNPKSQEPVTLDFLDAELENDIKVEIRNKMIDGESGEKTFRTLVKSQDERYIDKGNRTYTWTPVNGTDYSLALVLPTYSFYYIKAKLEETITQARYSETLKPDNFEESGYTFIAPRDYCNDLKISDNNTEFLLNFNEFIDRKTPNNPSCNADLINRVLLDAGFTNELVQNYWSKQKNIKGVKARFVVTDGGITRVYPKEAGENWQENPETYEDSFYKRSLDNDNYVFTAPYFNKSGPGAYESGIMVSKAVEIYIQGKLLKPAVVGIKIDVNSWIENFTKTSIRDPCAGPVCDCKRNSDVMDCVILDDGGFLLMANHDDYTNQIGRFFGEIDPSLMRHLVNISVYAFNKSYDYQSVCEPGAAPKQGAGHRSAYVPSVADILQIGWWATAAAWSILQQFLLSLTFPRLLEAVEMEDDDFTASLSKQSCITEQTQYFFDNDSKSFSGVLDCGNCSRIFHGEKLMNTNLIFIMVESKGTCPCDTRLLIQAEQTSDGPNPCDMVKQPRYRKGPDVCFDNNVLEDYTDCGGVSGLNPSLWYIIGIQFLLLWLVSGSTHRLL

Row | SMILES | Ki ([1]; Table 1) | Ki ([1]; Table 2, dual compounds) | Ki [2]
1 | CNCC[C@H](Oc1ccc(CN2CCN(C)c3ncccc3C2=O)c(Cl)c1)c1cccc(F)c1 [Example 149, (S)-4-(2-chloro-4-(1-(3-fluorophenyl)-3-(methylamino)propoxy)benzyl)-1-methyl-1,2,3,4-tetrahydro-5H-pyrido[2,3-e][1,4]diazepin-5-one] | < 100 nM | < 100 nM | < 100 nM
2 | CNCCC(Oc1ccc(CN2CCN(C)c3ncccc3C2=O)cc1)c1cccs1 (stereo not drawn) [Example 99, 1-Methyl-4-(4-(3-(methylamino)-1-(thiophen-2-yl)propoxy)benzyl)-1,2,3,4-tetrahydro-5H-pyrido[2,3-e][1,4]diazepin-5-one] | < 100 nM | < 100 nM | < 100 nM
3 | CNCC[C@H](Oc1ccc(CN2CCN(C)c3nc(C)ccc3C2=O)cc1)c1cccs1 [Example 91, (S)-1,8-dimethyl-4-(4-(3-(methylamino)-1-(thiophen-2-yl)propoxy)benzyl)-1,2,3,4-tetrahydro-5H-pyrido[2,3-e][1,4]diazepin-5-one] | 100 to 500 nM | 100 to 500 nM | 100 to 500 nM
4 | CNCC[C@H](Oc1ccc(CN2CCN(C)c3nc(O)ccc3C2=O)c(F)c1)c1ccccc1 [Example 142, (S)-4-(2-fluoro-4-(3-(methylamino)-1-phenylpropoxy)benzyl)-8-hydroxy-1-methyl-1,2,3,4-tetrahydro-5H-pyrido[2,3-e][1,4]diazepin-5-one] | > 3000 nM | > 3000 nM | < 100 nM
5 | CNCCC(OCc1cccc(N2CCN(C)CCC2=O)c1)c1cccs1 (stereo not drawn) [Example 84, 1-Methyl-4-(3-((3-(methylamino)-1-(thiophen-2-yl)propoxy)methyl)phenyl)-1,4-diazepan-5-one] | 500 to 3000 nM | 500 to 3000 nM | 100 to 500 nM
6 | CNCCC(Oc1ccc(CN2CCN(C)c3nc(N)ccc3C2=O)c(F)c1)c1cccc(F)c1 (stereo not drawn) [Example 131, 8-Amino-4-(2-fluoro-4-(1-(3-fluorophenyl)-3-(methylamino)propoxy)benzyl)-1-methyl-1,2,3,4-tetrahydro-5H-pyrido[2,3-e][1,4]diazepin-5-one] | < 100 nM | < 100 nM | < 100 nM
7 | CNCC[C@H](Oc1ccc(CN2CCN(C)c3nc(OC)ccc3C2=O)c(F)c1)c1ccccc1 [Example 132, (S)-4-(2-fluoro-4-(3-(methylamino)-1-phenylpropoxy)benzyl)-8-methoxy-1-methyl-1,2,3,4-tetrahydro-5H-pyrido[2,3-e][1,4]diazepin-5-one] | 100 to 500 nM | 100 to 500 nM | < 100 nM
8 | CCNc1ccc2c(n1)N(C)CCN(c1cccc(COC(CCNC)c3ccccc3)c1)C2=O (stereo not drawn) [Example 29, 8-(Ethylamino)-1-methyl-4-(3-((3-(methylamino)-1-phenylpropoxy)methyl)phenyl)-1,2,3,4-tetrahydro-5H-pyrido[2,3-e][1,4]diazepin-5-one] | 500 to 3000 nM | 500 to 3000 nM | 500 to 1000 nM
9 | CCN1CCC(=O)N(c2cccc(OC(CCNC)c3cccs3)c2)CC1 (stereo not drawn) [Example 58, 1-Ethyl-4-(3-(3-(methylamino)-1-(thiophen-2-yl)propoxy)phenyl)-1,4-diazepan-5-one] | 500 to 3000 nM | 500 to 3000 nM | 100 to 500 nM
10 | CNCC[C@H](Oc1cccc(N2CCN(C(C)C)CCC2=O)c1)c1cccs1 [Example 66, (S)-1-isopropyl-4-(3-(3-(methylamino)-1-(thiophen-2-yl)propoxy)phenyl)-1,4-diazepan-5-one] | 500 to 3000 nM | 500 to 3000 nM | 100 to 500 nM
11 | CNCCC(Oc1cc(F)cc(N2CCN(C)c3ncccc3C2=O)c1)c1cccc(F)c1 (stereo not drawn) [Example 121, 4-(3-Fluoro-5-(1-(3-fluorophenyl)-3-(methylamino)propoxy)phenyl)-1-methyl-1,2,3,4-tetrahydro-5H-pyrido[2,3-e][1,4]diazepin-5-one] | < 100 nM | < 100 nM | < 100 nM
12 | CNCCC(Oc1ccc(F)c(N2CCN(C)c3ncccc3C2=O)c1)c1cccc(F)c1 (stereo not drawn) [Example 119, 4-(2-Fluoro-5-(1-(3-ftuorophenyl)-3-(methylamino)propoxy)phenyl)-1-methyl-1,2,3,4-tetrahydro-5H-pyrido[2,3-e][1,4]diazepin-5-one] | 100 to 500 nM | 100 to 500 nM | < 100 nM
13 | CCNc1ccc2c(n1)N(C)CCN(Cc1ccc(O[C@@H](CCNC)c3cccc(F)c3)cc1F)C2=O [Example 148, (S)-8-(ethylamino)-4-(2-fluoro-4-(1-(3-fluorophenyl)-3-(methylamino)propoxy)benzyl)-1-methyl-1,2,3,4-tetrahydro-5H-pyrido[2,3-e][1,4]diazepin-5-one] | 100 to 500 nM | 100 to 500 nM | < 100 nM
14 | CNCC[C@H](Oc1ccc(CN2CCN(C)c3ncc(F)cc3C2=O)c(F)c1)c1ccccc1 [Example 143, (S)-7-fluoro-4-(2-fluoro-4-(3-(methylamino)-1-phenylpropoxy)benzyl)-1-methyl-1,2,3,4-tetrahydro-5H-pyrido[2,3-e][1,4]diazepin-5-one] | 100 to 500 nM | 100 to 500 nM | < 100 nM

— patent US11401270B2, “Alcoxyamino derivatives for treating pain and pain related conditions” (ESTEVE PHARMACEUTICALS, S.A., priority 2017, dated 2022)
